Test results: patent US12239619B2, “Composition for inducing pili formation in bacterium of genus Bifidobacterium” (MORINAGA MILK INDUSTRY CO., LTD., priority 2019, dated 2025)

Assays:
Assay type in all cases: cell-based
[1] = system: Bifidobacterium longum 1-1 strain; assay: Pili induction in cultured Bifidobacterium longum, Western blotting with anti-FimA antibody; details: anaerobic, 37° C.; for pili formation by Western blotting: 10 μg/mL in GAM agar medium, 24 hours (Test Example 5)
Description: KUHIMM culture solution (900 mL) containing human feces used in Test Example 1 was fractionated in the order of MilliQ water, 50% methanol, and 100% methanol (250 mL of each) with an activated carbon column (resin volume: 45 mL). Of each fraction, 100 μL was collected in another container, dried under reduced pressure, and then redissolved in 50 μL of MilliQ water. Subsequently, the Bifidobacterium longum 1-1 strain was cultured in GAM medium, and 50 μL of the redissolved solution of the above fraction was added to 1 mL of the bacterial solution obtained by adjusting the above culture solution at OD600=0.1, and culture was performed at 37° C. for 24 hours. After culture, the cells were collected by centrifugation (4000×g, 5 minutes).
Bifidobacterium longum 1-1 strain was anaerobically cultured at 37° C. for 24 hours on GAM agar medium containing 10 μg/mL of aromatic amino acids or the amino acid metabolite produced by Clostridium sporogenes.

[2] = system: Bifidobacterium longum 1-1 strain; assay: Scanning electron microscope observation of pili in cultured Bifidobacterium longum; details: 10 μg/mL in GAM agar medium, anaerobic, 37° C., 24 hours
[3] = system: human intestinal epithelial cell line (Caco-2 or HT29-MTX); assay: Adhesion of cultured Bifidobacterium longum to human intestinal epithelial cell line; details: B. longum cultured with 10 μg/mL PPA, 15 hours, 2 hours
Description: Furthermore, the adhesion of the cultured cells to the human intestinal epithelial cell line (Caco-2 or HT29-MTX) was evaluated. Specifically, the Bifidobacterium longum 1-1 strain was cultured on GAM medium containing 10 μg/mL of PPA at 37° C. for 15 hours. The cells were centrifuged (4000×g, 1 min, 4° C.), collected, and suspended in Dulbecco's modified Eagle's medium (DMEM) at OD600=0.5. 0.2 mL of this bacterial solution was added to a chamber slide glass in which HT29-MTX or Caac-2 cells had been cultured in a single layer, and was allowed to stand at 37° C. for 2 hours. After washing with DMEM medium, Bifidobacterium longum adhered with 4% paraformaldehyde was fixed and stained with crystal violet. The number of bacteria per well was counted under a microscope.

| Structure (SMILES) | pili formation by Western blotting [1] | pili observed with scanning electron microscope [2] | adhesion to human intestinal epithelial cell line, presence versus absence [3] | concentration in the medium that clearly induced the pili formation ([1]; GAM agar medium, 24 hours) | pili polymerization ([1]; GAM agar medium, final concentration 0.01 to 80 μg/mL, 24 hours) |
| --- | --- | --- | --- | --- | --- |
| O=C(O)CCc1ccc(O)cc1 [3-(4-hydroxyphenyl)propionic acid] | pili formation was observed although less significant than in the former case |  |  |  |  |
| O=C(O)CCc1ccccc1 [3-phenylpropionic acid] | pili formation was observed | large fiber-shaped pili were observed | significantly larger | more than 0.1 μg/mL | induced pili polymerization dose-dependently |
